{"source": "paper PMC7062757", "about": "(2020)", "key": {"[1]": {"test_system": "Mango II (RNA, aptamer) GGCACGUACGAAGGAGAGGAGAGGAAGAGGAGAGUACGUGC", "assay": "fluorescence titration, Hill fit", "conditions": "140 mM KCl, 1 mM MgCl2; 10 mM sodium phosphate, pH 7.2, 22 °C; 40 nM RNA; apparent; per site"}, "[2]": {"test_system": "M2 x3 array (5 nt) (Mango II x3, M2x3) (RNA, aptamer) GGCACGUACGAAGGAGAGGAGAGGAAGAGGAGAGUACGUGCUUUUUGGACAUGCCGAAGGAGAGGAGAGGAAGAGGAGAGGCAUGUCCUUUUUGGGUGCAUCGAAGGAGAGGAGAGGAAGAGGAGAGAUGCACCC", "assay": "fluorescence titration, Hill fit", "conditions": "140 mM KCl, 1 mM MgCl2; 10 mM sodium phosphate, pH 7.2, 22 °C; 40 nM RNA; apparent; per site"}}, "data": [{"smiles": "CN1C=CC(=Cc2sc3ccccc3[n+]2CC(=O)NCCOCCOCCOCCNC(=O)CCCC[C@@H]2SC[C@@H]3NC(=O)N[C@@H]32)c2ccccc21", "values": [{"measurement": "Kd,app", "setting": "[1]", "value": "30 ± 4", "unit": "nM"}, {"measurement": "Kd,app", "setting": "[2]", "value": "80 ± 6", "unit": "nM"}]}]}
